Laboratory results published in ChEMBL document CHEMBL1201862, “PubChem BioAssay data set” (2004).
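Cultured in 96-well plates, cells were exposed to test compound for 48 hours across five concentrations. Abbreviation: GI50, concentration required for 50% inhibition of growth.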 Calls of active or inactive are those of the source. Rule as the data show it: active = GI50 up to about 1.1 µM and inactive = higher.

What was measured:
Experiment in all cases: NCI tumour cell line growth inhibition, 48 h
[1] = system: U-251
[2] = system: HCT-116
[3] = system: NCI-H522
[4] = system: Hs-578T
[5] = system: MCF7
[6] = system: HT-29
[7] = system: PC-3
[8] = system: LOX IMVI
[9] = system: MDA-MB-231
[10] = system: K562
[11] = system: RPMI-8226
[12] = system: HCC 2998
[13] = system: M14
[14] = system: SK-MEL-2
[15] = system: SK-MEL-28
[16] = system: ACHN
[17] = system: DU-145
[18] = system: 786-0
[19] = system: COLO 205
[20] = system: SK-OV-3
[21] = system: A498
[22] = system: MDA-MB-435
[23] = system: OVCAR-5
[24] = system: HL-60
[25] = system: RXF 393
[26] = system: UACC-62
[27] = system: Malme-3M
[28] = system: SW-620
[29] = system: T47D
[30] = system: MDA-N
[31] = system: HOP-62
[32] = system: CCRF-CEM
[33] = system: OVCAR-8
[34] = system: IGROV-1
[35] = system: SF-295
[36] = system: NCI/ADR-RES
[37] = system: NCI-H23
[38] = system: SR
[39] = system: SNB-75
[40] = system: MOLT-4
[41] = system: NCI-H460
[42] = system: NCI-H226
[43] = system: UO-31
[44] = system: UACC-257
[45] = system: SF-539
[46] = system: OVCAR-4
[47] = system: EKVX
[48] = system: SN12C
[49] = system: CAKI-1
[50] = system: SF-268
[51] = system: A549
[52] = system: KM12
[53] = system: HCT-15
[54] = system: SK-MEL-5
[55] = system: SNB-19
[56] = system: TK-10
[57] = system: HOP-92
[58] = system: OVCAR-3

Measured: GI50

CCOC(=O)/C(=C\NC(=S)Nc1ccc(Cl)c(Cl)c1)C(=O)c1ccccc1
inactive: [1] 37.2 µM | [2] 46.5 µM | [3] 6.3 µM | [4] 2.11 µM | [5] 33.3 µM | [6] 33.1 µM | [7] 21.5 µM | [8] 69.7 µM | [9] 25.9 µM | [10] 10 µM | [11] 5.12 µM | [12] 17.3 µM | [13] 27.3 µM | [14] 21.7 µM | [15] 53.2 µM | [16] 18.2 µM | [17] > 100 µM | [18] 58.6 µM | [19] 46 µM | [20] 36.2 µM | [21] 3.94 µM | [22] 17.7 µM | [23] 36.2 µM | [24] 22.8 µM | [25] 21.6 µM | [26] 32.3 µM | [27] 63.5 µM | [28] 39.2 µM | [29] 7.82 µM | [30] 27.2 µM | [31] 40.6 µM | [32] 31.1 µM | [33] 47.6 µM | [34] 33 µM | [35] 33.6 µM | [36] 33 µM | [37] 8.61 µM | [38] 20.4 µM | [39] 6.79 µM | [40] 19 µM | [41] 42.1 µM | [42] 13.9 µM | [43] 1.52 µM | [44] 34 µM | [45] 3.12 µM | [46] 41.5 µM | [47] > 100 µM | [48] 46.5 µM | [49] 12.9 µM | [50] 26.6 µM | [51] 43.1 µM | [52] 26.5 µM | [54] 27.1 µM
29.1 µM: [53]

C[C@]12CCC(O)CC1=CC[C@@H]1[C@@H]2CC[C@]2(C)C(=O)[C@H](n3ccnc3)C[C@@H]12 (some centres undefined)
> 100 µM: [53]
inactive: [1] 61.9 µM | [2] 54.5 µM | [3] 33.5 µM | [4] > 100 µM | [5] 35.8 µM | [55] 79.1 µM | [6] 28.2 µM | [7] 28.6 µM | [8] 44.5 µM | [9] > 100 µM | [10] 38 µM | [11] 21.2 µM | [13] 77.6 µM | [14] 27 µM | [56] > 100 µM | [15] 79.4 µM | [16] > 100 µM | [17] > 100 µM | [18] > 100 µM | [19] 28.7 µM | [21] > 100 µM | [22] 43.1 µM | [23] > 100 µM | [24] 11.6 µM | [25] > 100 µM | [26] 47.5 µM | [27] > 100 µM | [28] > 100 µM | [30] 57.4 µM | [57] > 100 µM | [32] 22.1 µM | [33] 37.4 µM | [34] > 100 µM | [35] 94.8 µM | [36] 39.8 µM | [37] 33.8 µM | [38] 32.4 µM | [39] > 100 µM | [40] 17.9 µM | [41] 40.9 µM | [42] > 100 µM | [43] 75.9 µM | [44] 40.4 µM | [45] 58.6 µM | [46] 89.1 µM | [47] > 100 µM | [48] > 100 µM | [58] > 100 µM | [49] > 100 µM | [50] > 100 µM | [51] 91.4 µM | [52] 38.9 µM | [54] 16.2 µM

C=CCC(NCc1ccccc1)[C@H](OCc1ccccc1)[C@@H]1COC(C)(C)O1 (some centres undefined)
23.7 µM: [53]
inactive: [1] 37.6 µM | [2] 23.7 µM | [4] 24.7 µM | [5] 29.4 µM | [55] 72.8 µM | [6] 11.7 µM | [7] 31.9 µM | [8] 26 µM | [9] > 100 µM | [10] 23.7 µM | [11] 18.5 µM | [13] 36.2 µM | [14] 19.6 µM | [56] 23.8 µM | [15] 47.1 µM | [16] 42.6 µM | [17] 97.3 µM | [18] 30.4 µM | [19] 14.5 µM | [20] 79.3 µM | [21] 45.6 µM | [22] 36.1 µM | [23] 46.2 µM | [26] 40.6 µM | [27] 22.6 µM | [28] 41.9 µM | [30] 31.8 µM | [31] 55.1 µM | [57] 12.7 µM | [32] 28.1 µM | [33] 35.2 µM | [34] 35.8 µM | [35] 27.8 µM | [36] 46.8 µM | [37] 28.3 µM | [38] 21.1 µM | [39] 49 µM | [40] 23.7 µM | [42] 15.6 µM | [43] 22.9 µM | [44] 22.9 µM | [46] 44.7 µM | [47] 32.5 µM | [48] 43.4 µM | [58] 44.9 µM | [50] 44.9 µM | [51] 39 µM | [52] 29.8 µM | [54] 23 µM

Nc1nc(O)nc2sc3c(c12)CCCC3
> 100 µM: [53]
inactive: [1] > 100 µM | [2] 57 µM | [3] 46.6 µM | [4] 23.6 µM | [5] 44.5 µM | [55] 55.8 µM | [6] 68.2 µM | [7] > 100 µM | [9] 98.4 µM | [10] 61.4 µM | [11] 38.5 µM | [12] 82 µM | [13] 41.1 µM | [14] > 100 µM | [56] 92 µM | [15] 25.2 µM | [16] > 100 µM | [17] > 100 µM | [18] > 100 µM | [19] 39.5 µM | [20] > 100 µM | [23] > 100 µM | [24] 88.5 µM | [25] > 100 µM | [26] 32.1 µM | [27] 37.8 µM | [28] > 100 µM | [29] 64.9 µM | [31] 98.4 µM | [57] > 100 µM | [32] 41.3 µM | [33] > 100 µM | [34] 87.7 µM | [36] > 100 µM | [37] > 100 µM | [38] 51.5 µM | [39] 19.7 µM | [40] 99.3 µM | [41] 56.4 µM | [42] 4.57 µM | [43] 81.7 µM | [44] 63.1 µM | [45] 42.8 µM | [46] 38.5 µM | [47] 7.48 µM | [48] 73.3 µM | [50] 90.4 µM | [51] 84.3 µM | [52] 33.3 µM | [54] > 100 µM
